In patent US4048299A, “Anticaries confectionaries and oral health products” (William Wrigley, Jr. Co., priority 1970, dated 1977):

Key:
[1] = system: Lactobacillus casei and Streptococcus sp. FA-1; assay: Acid-production inhibition by broth-tube assay, 0.1 percent of compound; type: cell-based; details: Table XII; 0.1% of compound
Description: ^(a) Activity was measured by broth-tube assay to determine percent
(§1) acid-production inhibition obtained by Lactobacillus casei and
Streptococcus sp. FA-1 in the presence of 0.1 percent of compound.
^(a) Activity was measured by broth-tube assay to determine percent o
as §1
Streptococcus sp. FA-1 in the presence of 0.1% of compound. Symbols

Streptococcus spp. KI-R [2] = assay: Growth inhibition by aldehydes in product vehicles, pour-plate technique; type: cell-based; details: 1 to 5 percent aldehyde
Description: (§2) Other in vitro evaluations utilized a broth tube analysis of representative anticaries aldehydes incorporated in the vehicles of this invention against cultures of acid producing microorganisms normally present in the mouth. Standard laboratory procedures were utilized throughout to evaluate the acid production inhibition and growth inhibition over the incubation time of up to 24 hours.
(§3) (b)Measured by pour-plate technique.
(§4) In formulating Tables XIII - XIX representative aldehydes having anticaries activity were selected from those tested as summarized in Tables I - XII and incorporated in seven representative types of products. The products included dextrose and sucrose syrups, obtained commercially in food grades, and compressed candy, hard candy, mouthwash, toothpaste and toothpowder. The five latter products also employed food grade and reagent grade ingredients. These products were formulated by well-known and representative recipes for each type of product. The products were formed in batches of approximately 1 pound or 1 liter and contained all their normal constitutents. Aliquots of each products were blended with one of each of the representative aldehydes selected except in the case of hard candy.
(§5) Aliquots of the aldehyde incorporating sugar syrups, confectioneries, and mouthwash formulations were added directly to assay flasks and mixed or dissolved as required. Aqueous extracts of the aldehyde incorporated in toothpaste and toothpowder were prepared and aliquots of the filtrate were added to the assay flasks.
(§6) The assay flasks contained the necessary components for a normal growth response from the organisms employed, Lactobacillus casei ATCC 4646, originally a human oral isolate, Streptococcus spp. K1-R, human caries isolate, and a mixed oral microbial population obtained fresh from saliva on the morning prior to the initiation of each assay incubation period. The assay flask medium was dissolved in distilled water in which was added an equal volume of filter sterilized human saliva to yield a 50 percent saliva-medium combination. The medium contained all normal ingredients such as yeast extract, proteose peptone number 3 (a proprietary formula of Difco Laboratories, Detroit, Michigan) monopotassium phosphate, Tween 80 (polyoxethylene sorbitan monoleate) and water, except a carbon source. This was supplied by the aliquot of the sucrose syrup, dextrose syrup, sucrose in the compressed candy tablet and sucrose in the hard candy product. In addition, an aliquot of sucrose solution concentrate was added to the assay flask as a carbon source for evaluation of mouthwash, toothpaste, and toothpowder vehicles.
(§7) The lower aldehydes such as glycolaldehyde, crystalline dimer; pyruvaldehyde, aqueous syrup; d,1-glyceraldehyde solution and crystalline dimer; and glutaraldehyde, employed as a 50 percent aqueous solution, are water soluble and were employed directly either as powders or aqueous solutions. The C8 to C12, longer chain aliphatic aldehydes, of which decyl and dodecyl (lauric) were selected as representative, are oil soluble and are prepared and added to the products as emulsions with four parts of Tween 20, polyoxethylene sorbitan monolaurate. The aldehyde concentrations in the products were randomly chosen between 1 to 5 percent by weight. Limits for the concentrations were selected to coincide with the data presented in Tables I - XII in order to verify that the anticaries activity of the aldehydes in the product vehicles tested was equivalent to the activity previously established for the aldehydes alone.

[3] = system: Lactobacillus casei ATCC 4646; assay: as above; type: cell-based; details: 1 to 5 percent aldehyde
Description: as §2, §3, §4, §5, §6, §7

[4] = system: Mixed human oral microorganisms; assay: as above; type: cell-based; details: 1 to 5 percent aldehyde
Description: as §2, §3, §4, §5, §6, §7

Streptococcus spp. KI-R [5] = assay: Acid production inhibition by aldehydes in product vehicles, broth-tube technique; type: cell-based; details: 1 to 5 percent aldehyde
Description: as §2
(§8) (a)Measured by broth-tube technique.
as §4, §5, §6, §7

[6] = system: Lactobacillus casei ATCC 4646; assay: as above; type: cell-based; details: 1 to 5 percent aldehyde
Description: as §2, §8, §4, §5, §6, §7

[7] = system: Mixed human oral microorganisms; assay: as above; type: cell-based; details: 1 to 5 percent aldehyde
Description: as §2, §8, §4, §5, §6, §7

oral microorganisms = assay: Comparison of activity against oral microorganisms in vitro; details: in words, summary of tables
Description: Two types of in vitro evaluations of the anticaries agents of this invention were conducted. […] The data was compiled through well-known broth tube analysis techniques.

[8] = in compressed candy tablet, 2 h incubation
[9] = in compressed candy tablet, 5 h incubation
[10] = in compressed candy tablet, 24 h incubation
[11] = in dextrose syrup, 2 h incubation
[12] = in dextrose syrup, 5 h incubation
[13] = in dextrose syrup, 24 h incubation
[14] = in sucrose syrup, 2 h incubation
[15] = in sucrose syrup, 5 h incubation
[16] = in sucrose syrup, 24 h incubation
[17] = in tooth powder (aqueous extract), 2 h incubation
[18] = in tooth powder (aqueous extract), 5 h incubation
[19] = in tooth powder (aqueous extract), 24 h incubation
[20] = in toothpaste (aqueous extract), 2 h incubation
[21] = in toothpaste (aqueous extract), 5 h incubation
[22] = in toothpaste (aqueous extract), 24 h incubation

In the case of `O=CCCCC=O` [Glutaraldehyde], the “Activity, Acid-Production Inhibition, %” value [1] is reported as “++++ (99 to 100)”, the Solubility is reported as “water soluble” and the “Growth Inhibition” value (Streptococcus spp. KI-R [2]; [8]) is reported as “N.S”. For the same molecule, the “Growth Inhibition” value (Streptococcus spp. KI-R [2]; [9]) was “N.S”, the “Growth Inhibition” value (Streptococcus spp. KI-R [2]; [10]) was “N.S” and the “Growth Inhibition” value (Streptococcus spp. KI-R [2]; [11]) was “N.S”. For the same molecule, the “Growth Inhibition” value (Streptococcus spp. KI-R [2]; [12]) was 99.96 Per Cent, the “Growth Inhibition” value (Streptococcus spp. KI-R [2]; [13]) was 0 Per Cent and the “Growth Inhibition” value (Streptococcus spp. KI-R [2]; in mouthwash, 2 h incubation) was 100 Per cent. For the same molecule, the “Growth Inhibition” value (Streptococcus spp. KI-R [2]; in mouthwash, 5 h incubation) was 99.999 Per cent, the “Growth Inhibition” value (Streptococcus spp. KI-R [2]; in mouthwash, 24 h incubation) was 100 Per cent and the “Growth Inhibition” value (Streptococcus spp. KI-R [2]; [14]) was “N.S”. The “Growth Inhibition” value (Streptococcus spp. KI-R [2]; [15]) was over 99 Per cent, the “Growth Inhibition” value (Streptococcus spp. KI-R [2]; [16]) was 90 Per cent and the “Growth Inhibition” value (Streptococcus spp. KI-R [2]; [17]) was “N.S”. For the same molecule, the “Growth Inhibition” value (Streptococcus spp. KI-R [2]; [18]) was “N.S”, the “Growth Inhibition” value (Streptococcus spp. KI-R [2]; [19]) was “N.S” and the “Growth Inhibition” value (Streptococcus spp. KI-R [2]; [20]) was “N.S”. The “Growth Inhibition” value (Streptococcus spp. KI-R [2]; [21]) was “N.S”, the “Growth Inhibition” value (Streptococcus spp. KI-R [2]; [22]) was “N.S” and the “Growth Inhibition” value [3, 8] was “N.S”. The “Growth Inhibition” value [3, 9] was “N.S”, the “Growth Inhibition” value [3, 10] was 99.5 Per Cent and the “Growth Inhibition” value [3, 11] was “N.S”. The “Growth Inhibition” value [3, 12] was “N.S”, the “Growth Inhibition” value [3, 13] was 90 Per Cent and the “Growth Inhibition” value [3, 14] was “N.S”. The “Growth Inhibition” value [3, 15] was “N.S”, the “Growth Inhibition” value [3, 16] was “N.S” and the “Growth Inhibition” value [3, 17] was “N.S”. For the same molecule, the “Growth Inhibition” value [3, 18] was “N.S”, the “Growth Inhibition” value [3, 19] was “N.S” and the “Growth Inhibition” value [3, 20] was “N.S”. For the same molecule, the “Growth Inhibition” value [3, 21] was “N.S”, the “Growth Inhibition” value [3, 22] was 0 Per cent and the “Growth Inhibition” value [4, 8] was 97.3 Per Cent. For the same molecule, the “Growth Inhibition” value [4, 9] was 99.8 Per Cent, the “Growth Inhibition” value [4, 10] was “N.S” and the “Growth Inhibition” value [4, 11] was 92.5 Per Cent. The “Growth Inhibition” value [4, 12] was 90 Per Cent, the “Growth Inhibition” value [4, 13] was “N.S” and the “Growth Inhibition” value ([4]; in mouthwash, 2 h incubation) was 100 Per cent. The “Growth Inhibition” value ([4]; in mouthwash, 5 h incubation) was 100 Per cent, the “Growth Inhibition” value ([4]; in mouthwash, 24 h incubation) was 99.9 Per cent and the “Growth Inhibition” value [4, 14] was 90 Per cent. For the same molecule, the “Growth Inhibition” value [4, 15] was 93 Per cent, the “Growth Inhibition” value [4, 16] was “N.S” and the “Growth Inhibition” value [4, 17] was “N.S”. The “Growth Inhibition” value [4, 18] was 96.6 Per cent, the “Growth Inhibition” value [4, 19] was “N.S” and the “Growth Inhibition” value [4, 20] was 0 Per cent. The “Growth Inhibition” value [4, 21] was “N.S”, the “Growth Inhibition” value [4, 22] was “N.S” and the “Acid Production Inhibition” value (Streptococcus spp. KI-R [5]; [8]) was 100 Per Cent. For the same molecule, the “Acid Production Inhibition” value (Streptococcus spp. KI-R [5]; [9]) was 100 Per Cent, the “Acid Production Inhibition” value (Streptococcus spp. KI-R [5]; [10]) was 100 Per Cent and the “Acid Production Inhibition” value (Streptococcus spp. KI-R [5]; [11]) was 70 Per Cent. For the same molecule, the “Acid Production Inhibition” value (Streptococcus spp. KI-R [5]; [12]) was 93 Per Cent, the “Acid Production Inhibition” value (Streptococcus spp. KI-R [5]; [13]) was 0 Per Cent and the “Acid Production Inhibition” value (Streptococcus spp. KI-R [5]; in mouthwash, 2 h incubation) was 0 Per cent. The “Acid Production Inhibition” value (Streptococcus spp. KI-R [5]; in mouthwash, 5 h incubation) was 0 Per cent, the “Acid Production Inhibition” value (Streptococcus spp. KI-R [5]; in mouthwash, 24 h incubation) was 99 Per cent and the “Acid Production Inhibition” value (Streptococcus spp. KI-R [5]; [14]) was 100 Per cent. The “Acid Production Inhibition” value (Streptococcus spp. KI-R [5]; [15]) was 83 Per cent, the “Acid Production Inhibition” value (Streptococcus spp. KI-R [5]; [16]) was 0 Per cent and the “Acid Production Inhibition” value (Streptococcus spp. KI-R [5]; [17]) was 0 Per cent. The “Acid Production Inhibition” value (Streptococcus spp. KI-R [5]; [18]) was 0 Per cent, the “Acid Production Inhibition” value (Streptococcus spp. KI-R [5]; [19]) was 0 Per cent and the “Acid Production Inhibition” value (Streptococcus spp. KI-R [5]; [20]) was 100 Per cent. The “Acid Production Inhibition” value (Streptococcus spp. KI-R [5]; [21]) was 100 Per cent, the “Acid Production Inhibition” value (Streptococcus spp. KI-R [5]; [22]) was 84 Per cent and the “Acid Production Inhibition” value [6, 8] was 0 Per Cent. The “Acid Production Inhibition” value [6, 9] was 33 Per Cent, the “Acid Production Inhibition” value [6, 10] was 81 Per Cent and the “Acid Production Inhibition” value [6, 11] was 76 Per Cent. The “Acid Production Inhibition” value [6, 12] was 70 Per Cent, the “Acid Production Inhibition” value [6, 13] was 29 Per Cent and the “Acid Production Inhibition” value [6, 14] was 100 Per cent. The “Acid Production Inhibition” value [6, 15] was 75 Per cent, the “Acid Production Inhibition” value [6, 16] was 50 Per cent and the “Acid Production Inhibition” value [6, 17] was 0 Per cent. The “Acid Production Inhibition” value [6, 18] was 33 Per cent, the “Acid Production Inhibition” value [6, 19] was 21 Per cent and the “Acid Production Inhibition” value [6, 20] was 80 Per cent. The “Acid Production Inhibition” value [6, 21] was 80 Per cent, the “Acid Production Inhibition” value [6, 22] was 50 Per cent and the “Acid Production Inhibition” value [7, 8] was 100 Per Cent. For the same molecule, the “Acid Production Inhibition” value [7, 9] was 100 Per Cent, the “Acid Production Inhibition” value [7, 10] was 0 Per Cent and the “Acid Production Inhibition” value [7, 11] was 23 Per Cent. For the same molecule, the “Acid Production Inhibition” value [7, 12] was 81 Per Cent, the “Acid Production Inhibition” value [7, 13] was 16 Per Cent and the “Acid Production Inhibition” value ([7]; in mouthwash, 2 h incubation) was 0 Per cent. The “Acid Production Inhibition” value ([7]; in mouthwash, 5 h incubation) was 100 Per cent, the “Acid Production Inhibition” value ([7]; in mouthwash, 24 h incubation) was 91 Per cent and the “Acid Production Inhibition” value [7, 14] was 100 Per cent. The “Acid Production Inhibition” value [7, 15] was 59 Per cent, the “Acid Production Inhibition” value [7, 16] was 0 Per cent and the “Acid Production Inhibition” value [7, 17] was 67 Per cent. The “Acid Production Inhibition” value [7, 18] was 95 Per cent, the “Acid Production Inhibition” value [7, 19] was 45 Per cent and the “Acid Production Inhibition” value [7, 20] was 0 Per cent. The “Acid Production Inhibition” value [7, 21] was 0 Per cent and the “Acid Production Inhibition” value [7, 22] was 0 Per cent.

In the case of `CC(O)C=O` (stereo not drawn) [α-Hydroxypropionaldehyde], the “Anticaries activity in vitro” value (oral microorganisms) is reported as “excellent anticaries activity”.
